According to patent US10570122B2, “Compounds with anti-tumoral activity” (AB Science, priority 2015, dated 2020):
pIC50: −log10 of the molar value.

Legend:
[1] = test system: SW579; assay: CellTiter-Blue cell-based survival/proliferation assay, SW579; conditions: Homo sapiens; SW579 head & neck tumor cell line, 48 h
In short: (§1)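 Compounds, diluted tenfold serially over 0–10 μM, are applied to 1·10^4 seeded cells per well for 48 h at 37 °C. Resorufin formed during a further 4 h with CellTiter-Blue is detected by fluorescence emission at 590 nm.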

[2] = test system: DU145; assay: CellTiter-Blue cell-based survival/proliferation assay, DU145; conditions: Homo sapiens, DU-145; DU145 prostate tumor cell line, 48 h
In short: as §1

[3] = test system: TOV112D; assay: CellTiter-Blue cell-based survival/proliferation assay, TOV112D; conditions: Homo sapiens; TOV112D ovary tumor cell line, 48 h
In short: as §1

[4] = test system: HCT116; assay: CellTiter-Blue cell-based survival/proliferation assay, HCT116; conditions: Homo sapiens, HCT-116; HCT116 colorectal tumor cell line, 48 h
In short: as §1

[5] = test system: HGC27; assay: CellTiter-Blue cell-based survival/proliferation assay, HGC27; conditions: Homo sapiens, HGC-27; HGC27 stomach tumor cell line, 48 h
In short: as §1

[6] = test system: AGS; assay: CellTiter-Blue cell-based survival/proliferation assay, AGS; conditions: Homo sapiens; AGS stomach tumor cell line, 48 h
In short: as §1

[7] = test system: PLCPRF5; assay: CellTiter-Blue cell-based survival/proliferation assay, PLCPRF5; conditions: Homo sapiens, PLC-PRF-5; PLC_PRF5 liver tumor cell line, 48 h
In short: as §1

[8] = test system: PANC1; assay: CellTiter-Blue cell-based survival/proliferation assay, PANC1; conditions: Homo sapiens, PANC-1; PANC_1 pancreas tumor cell line, 48 h
In short: as §1

[9] = test system: HUT78; assay: CellTiter-Blue cell-based survival/proliferation assay, HUT78; conditions: Homo sapiens, Lymphoma cell line HUT78, 48 h, read-out: Anti-tumoral activity (measured IC50) HUT78
Description: (§2) Cell-Based Proliferation Screening of Compounds
(§3) CellTiter-Blue cell-based survival/proliferation assay (Promega G8080) was performed on tumor cell lines. A total of 1·10^4 cells/well/50 μl were seeded in a 96-wells plate. Treatment was initiated by addition of a 2× drug solution of 1/10 serial dilutions ranging from 0 to 10 μM. Cells were grown for 48 h at 37° C. and then incubated with 10 μl/well of Promega CellTiter-Bleue reagent for 4 h at 37° C. The amount of resorufin dye formed was quantified by its fluorescence emission at 590 nm using a scanning multiwell spectrophotometer (OPTIMA, BMG labtech, France). A blank well without cells was used as a background control for the spectrophotometer.

[10] = test system: CLS354; assay: CellTiter-Blue cell-based survival/proliferation assay, CLS354; conditions: Homo sapiens, CLS-354; CLS354_4 head & neck tumor cell line, 48 h
In short: as §1

[11] = test system: A549; assay: CellTiter-Blue cell-based survival/proliferation assay, A549; conditions: Homo sapiens; A549 lung tumor cell line, 48 h
In short: as §1

[12] = test system: HEPG2; assay: CellTiter-Blue cell-based survival/proliferation assay, HEPG2; conditions: Homo sapiens; HEPG2 liver tumor cell line, 48 h
In short: as §1

[13] = test system: H1299; assay: CellTiter-Blue cell-based survival/proliferation assay, H1299; conditions: Homo sapiens, NCI-H1299; H1299 lung tumor cell line, 48 h
In short: as §1

[14] = test system: OPM2; assay: CellTiter-Blue cell-based survival/proliferation assay, OPM2; conditions: Homo sapiens, OPM-2, Myeloma cell line OPM2, 48 h, read-out: Anti-tumoral activity (measured IC50) OPM2
In short: as §1

[15] = test system: MESSA; assay: CellTiter-Blue cell-based survival/proliferation assay, MESSA; conditions: Homo sapiens, MES-SA; MESSA ovary tumor cell line, 48 h
In short: as §1

[16] = test system: BT20; assay: CellTiter-Blue cell-based survival/proliferation assay, BT20; conditions: Homo sapiens, BT-20; BT20 breast tumor cell line, 48 h
In short: as §1

[17] = test system: HEP2; assay: CellTiter-Blue cell-based survival/proliferation assay, HEP2; conditions: Homo sapiens, HEp-2; HEP2 head & neck tumor cell line, 48 h
In short: as §1

[18] = test system: CALU6; assay: CellTiter-Blue cell-based survival/proliferation assay, CALU6; conditions: Homo sapiens, Calu-6; CALU6 lung tumor cell line, 48 h
In short: as §1

[19] = test system: BXPC3; assay: CellTiter-Blue cell-based survival/proliferation assay, BXPC3; conditions: Homo sapiens, BXPC-3; BXPC3 pancreas tumor cell line, 48 h
In short: as §1

[20] = test system: KARPAS299; assay: CellTiter-Blue cell-based survival/proliferation assay, KARPAS299; conditions: Homo sapiens, KARPAS-299, Lymphoma cell line KARPAS299, 48 h, read-out: Anti-tumoral activity (measured IC50) KARPAS299
Description: as §2, §3

[21] = test system: A498; assay: CellTiter-Blue cell-based survival/proliferation assay, A498; conditions: Homo sapiens; A498 kidney tumor cell line, 48 h
In short: as §1

[22] = test system: PC3; assay: CellTiter-Blue cell-based survival/proliferation assay, PC3; conditions: Homo sapiens, PC-3; PC3 prostate tumor cell line, 48 h
In short: as §1

[23] = test system: MDAMB231; assay: CellTiter-Blue cell-based survival/proliferation assay, MDAMB231; conditions: Homo sapiens, MDA-MB-231; MDAMB231 breast tumor cell line, 48 h
In short: as §1

[24] = test system: REC1; assay: CellTiter-Blue cell-based survival/proliferation assay, REC1; conditions: Homo sapiens, Lymphoma cell line REC1, 48 h, read-out: Anti-tumoral activity (measured IC50) REC1
Description: as §2, §3

[25] = test system: HL60; assay: CellTiter-Blue cell-based survival/proliferation assay, HL60; conditions: Homo sapiens, HL-60, Leukemia cell line HL60, 48 h, read-out: Anti-tumoral activity (measured IC50) HL60
In short: as §1

[26] = test system: ACHN; assay: CellTiter-Blue cell-based survival/proliferation assay, ACHN; conditions: Homo sapiens; ACHN kidney tumor cell line, 48 h
In short: as §1

[27] = test system: DLD1; assay: CellTiter-Blue cell-based survival/proliferation assay, DLD1; conditions: Homo sapiens, DLD-1; DLD_1 colorectal tumor cell line, 48 h
In short: as §1

[28] = test system: panel of about 34 human tumor cell lines; assay: Cell-based proliferation screening on panel of tumor cell lines; conditions: solid tumor cell line, cell line unknown, 48 h, read-out: IC50, solid tumor cell line of column 6 (last section of Table 3)
In short: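 CellTiter-Blue survival assay with 1·10^4 cells/well, each line treated 48 h at 37° C with 1/10 serial dilutions from 0 to 10 μM. Resorufin formed during a 4 h reagent incubation is read by fluorescence at 590 nm. A cell-free blank serves as background.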

| SMILES | pIC50 [1] | pIC50 [2] | pIC50 [3] | pIC50 [4] | pIC50 [5] | pIC50 [6] | pIC50 [7] | pIC50 [8] | pIC50 [9] | pIC50 [10] | pIC50 [11] | pIC50 [12] | pIC50 [13] | pIC50 [14] | pIC50 [15] | pIC50 [16] | pIC50 [17] | pIC50 [18] | pIC50 [19] | pIC50 [20] | also measured |
| --- | --- | --- | --- | --- | --- | --- | --- | --- | --- | --- | --- | --- | --- | --- | --- | --- | --- | --- | --- | --- | --- |
| CCOCc1cc(COCC)cc(Nc2ncc(-c3ccc(-n4cccn4)cc3)o2)c1 [Example 022, (3,5-Bis-(ethoxymethyl)-phenyl)-[5-(4-pyrazol-1-yl-phenyl)-oxazol-2-yl]-amine] | < 6.00 | < 6.00 | < 6.00 | < 6.00 | < 6.00 | < 6.00 | < 6.00 | < 6.00 | < 6.00 | < 6.00 | < 6.00 | < 6.00 | < 6.00 | 6.00 to 6.30 | < 6.00 | < 6.00 | < 6.00 | < 6.00 | < 6.00 | 6.30 to 7.00 | pIC50 [21]: < 6.00; pIC50 [22]: < 6.00; pIC50 [23]: < 6.00; pIC50 [24]: 6.00 to 6.30; pIC50 [25]: < 6.00; pIC50 [26]: < 6.00; pIC50 [27]: < 6.00; pIC50 [28]: 6.00 to 6.30 |
| COc1ccc(C)c(Nc2ncc(-c3ccc(-n4cccn4)cc3)o2)c1 [Example 023, (5-Methoxy-2-methyl-phenyl)-[5-(4-pyrazol-1-yl-phenyl)-oxazol-2-yl]-amine] | < 6.00 | < 6.00 | < 6.00 | < 6.00 | < 6.00 | < 6.00 | < 6.00 | < 6.00 | 6.30 to 7.00 | 6.30 to 7.00 | < 6.00 | < 6.00 | < 6.00 | 6.30 to 7.00 | < 6.00 | < 6.00 | < 6.00 | < 6.00 | < 6.00 | 6.30 to 7.00 | pIC50 [21]: < 6.00; pIC50 [22]: < 6.00; pIC50 [23]: < 6.00; pIC50 [24]: 6.30 to 7.00; pIC50 [25]: 6.30 to 7.00; pIC50 [26]: < 6.00; pIC50 [27]: < 6.00; pIC50 [28]: 6.30 to 7.00 |
| Cc1ccc(COCCN)cc1Nc1ncc(-c2ccc(-n3cccn3)cc2)o1 [Example 024, [5-(2-Amino-ethoxymethyl)-2-methyl-phenyl]-[5-(4-pyrazol-1-yl-phenyl)-oxazol-2-yl]-amine] | < 6.00 | < 6.00 | < 6.00 | < 6.00 | < 6.00 | < 6.00 | < 6.00 | < 6.00 | < 6.00 | < 6.00 | < 6.00 | < 6.00 | < 6.00 | < 6.00 | < 6.00 | < 6.00 | < 6.00 | < 6.00 | < 6.00 | < 6.00 | pIC50 [21]: < 6.00; pIC50 [22]: < 6.00; pIC50 [23]: < 6.00; pIC50 [24]: < 6.00; pIC50 [25]: < 6.00; pIC50 [26]: < 6.00; pIC50 [27]: < 6.00; pIC50 [28]: < 6.00 |
| CC(=O)NCCOCc1ccc(C)c(Nc2ncc(-c3ccc(-n4cccn4)cc3)o2)c1 [Example 025, N-(2-{4-Methyl-3-[5-(4-pyrazol-1-yl-phenyl)-oxazol-2-ylamino]-benzyloxy}-ethyl)-acetamide] | < 6.00 | < 6.00 | < 6.00 | < 6.00 | < 6.00 | < 6.00 | < 6.00 | < 6.00 | < 6.00 | < 6.00 | < 6.00 | < 6.00 | < 6.00 | < 6.00 | < 6.00 | < 6.00 | < 6.00 | < 6.00 | < 6.00 | < 6.00 | pIC50 [21]: < 6.00; pIC50 [22]: < 6.00; pIC50 [23]: < 6.00; pIC50 [24]: < 6.00; pIC50 [25]: < 6.00; pIC50 [26]: < 6.00; pIC50 [27]: < 6.00; pIC50 [28]: < 6.00 |
| Cc1ccc(COCCO)cc1Nc1ncc(-c2ccc(-n3cccn3)cc2)o1 [Example 026, 2-{4-Methyl-3-[5-(4-pyrazol-1-yl-phenyl)-oxazol-2-ylamino]-benzyloxy}-ethanol] | < 6.00 | < 6.00 | < 6.00 | < 6.00 | < 6.00 | < 6.00 | < 6.00 | < 6.00 | < 6.00 | < 6.00 | < 6.00 | < 6.00 | < 6.00 | < 6.00 | < 6.00 | < 6.00 | < 6.00 | < 6.00 | < 6.00 | < 6.00 | pIC50 [21]: < 6.00; pIC50 [22]: < 6.00; pIC50 [23]: < 6.00; pIC50 [24]: < 6.00; pIC50 [25]: < 6.00; pIC50 [26]: < 6.00; pIC50 [27]: < 6.00; pIC50 [28]: < 6.00 |
